One assay concerns LNCaP cells. Briefly: In vitro cellular uptake (cell surface and internalized fractions) in LNCaP cells. In kind it is cell-based. The procedure: The cellular uptake was studied in vitro using intact cells seeded in 6-well plates overnight. On the day of the experiment, the cells were washed and incubated with each of the exemplified [^61Cu]Cu-radiotracer at different time points, either alone or in the presence of a blocking agent to distinguish between specific and non-specific uptake. At each investigated time point, the medium containing the unbound (free) radiotracer was removed, followed by two washing steps with ice-cold phosphate-buffered saline. The cells were then treated 2×5 min with ice-cold glycine solution (0.05 M, pH 2.8) to detach the cell surface-bound radiotracer (acid released). Afterwards, the cells containing the internalized radiotracer were detached with 1 M NaOH at 37° C. and collected for measurement. The amount of specific cell surface-bound and internalized radiotracer is expressed as percentage of the total applied activity, after subtracting the non-specific values.
2-(phosphonomethyl)-pentanedioic acid (2-PMPA, 10 μM) was used to determine non-specific binding (FIG. 14).
Cellular uptake and distribution between cell surface (cell membrane bound) and internalized fractions of ^61Cu-labeled PSMA-I&T constructs versus their ^68Ga counterparts (Table 19). The values are expressed as % of the applied activity and refer to the specific uptake calculated after subtracting the non-specific values (measured in the presence of 10 μM 2-PMPA) from the total values (specific=total−non specific).

Another assay has as its target PSMA (Homo sapiens (Human), UniProt Q04609). As to the kind of experiment: Specificity study: PET/CT in LNCaP xenografts after blocking with 2-PMPA, and free [61Cu]CuCl2. Type of assay: in vivo, mice. The note with it: PET/CT 1 hour p.i. As to the method:
The specificity of [^61Cu]Cu-NODAGA-PSMA-I&T and [^61Cu]Cu-DOTAGA-PSMA-I&T was assessed in LNCaP xenografted mice, firstly injected with 1.3 μmol (300 μg) of 2-Phosphonomethyl pentanedioic acid (2-PMPA) as the blocking agent, followed by the injection of the radiotracer e.g. [^61Cu]Cu-DOTAGA-PSMA-I&T (100 μL/[…]/4-8 MBq) or [^61Cu]Cu-NODAGA-PSMA-I&T (100 μL/[…]/4-8 MBq). One-hour post injection PET/CT images were acquired as described in Example 8. In addition, PET/CT image of xenografts after injection of [^61Cu]CuCl2 (100 μL/7 MBq) was acquired in order to assess the total body distribution of free (uncomplexed)^61Cu. The results are shown in FIG. 10, panels A and B. L=liver; K=kidneys; T=tumor; Bl=bladder; I=intestine.

We go through 1 molecule from patent US20240173440A1, “HIGH PURITY COPPER RADIOPHARMACEUTICAL COMPOSITIONS AND DIAGNOSTIC AND THERAPEUTIC USES THEREOF” (Nuclidium AG, priority 2022, published 2024).

Structures are written as SMILES.

Sequence of PSMA (Q04609 whole entry): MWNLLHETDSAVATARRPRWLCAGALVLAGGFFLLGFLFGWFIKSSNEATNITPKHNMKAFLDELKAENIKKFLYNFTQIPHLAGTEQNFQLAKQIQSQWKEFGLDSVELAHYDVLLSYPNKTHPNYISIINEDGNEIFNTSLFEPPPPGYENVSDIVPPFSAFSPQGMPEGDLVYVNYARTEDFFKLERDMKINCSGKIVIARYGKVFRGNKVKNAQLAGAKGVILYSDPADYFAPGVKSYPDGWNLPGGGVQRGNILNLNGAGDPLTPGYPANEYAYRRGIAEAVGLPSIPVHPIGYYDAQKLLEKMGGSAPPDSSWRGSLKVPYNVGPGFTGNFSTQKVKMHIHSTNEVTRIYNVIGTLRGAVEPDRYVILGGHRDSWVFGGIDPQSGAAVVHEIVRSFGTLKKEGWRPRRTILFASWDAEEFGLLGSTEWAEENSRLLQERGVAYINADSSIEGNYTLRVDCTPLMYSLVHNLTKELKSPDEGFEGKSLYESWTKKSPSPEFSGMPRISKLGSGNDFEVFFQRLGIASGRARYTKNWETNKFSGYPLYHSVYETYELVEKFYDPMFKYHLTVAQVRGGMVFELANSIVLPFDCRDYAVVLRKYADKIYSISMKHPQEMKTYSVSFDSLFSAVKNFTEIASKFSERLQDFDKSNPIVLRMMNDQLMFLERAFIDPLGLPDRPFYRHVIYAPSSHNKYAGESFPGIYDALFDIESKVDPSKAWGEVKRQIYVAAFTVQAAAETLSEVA

As to `O=C(O)CC[C@H](NC(=O)N[C@@H](CCCCNC(=O)CCCCCCC(=O)NCCCC[C@@H](NC(=O)[C@@H](Cc1ccccc1)NC(=O)[C@@H](Cc1ccc(O)c(I)c1)NC(=O)CC[C@H](C(=O)O)N1CCN2CCN(CC1)CC(=O)[O][61Cu][O]C(=O)C2)C(=O)O)C(=O)O)C(=O)O` [[^61Cu]Cu-NODAGA-PSMA-I&T], the Cell surface fraction with LNCaP cells (5 min, specific uptake) is on record as 4.3 ± 0.7 % of the applied activity; in the assay on LNCaP cells (15 min, specific uptake), 8.2 ± 1.0 % of the applied activity; in the assay on LNCaP cells (30 min, specific uptake), 10.7 ± 1.0 % of the applied activity; in the assay with LNCaP cells (60 min, specific uptake), 10.8 ± 1.8 % of the applied activity; in the assay with LNCaP cells (120 min, specific uptake), 10.2 ± 1.8 % of the applied activity. For the same molecule, the Internalized fraction with LNCaP cells (5 min, specific uptake) was 1.2 ± 0.2 % of the applied activity; in the assay on LNCaP cells (15 min, specific uptake), 3.9 ± 0.4 % of the applied activity; in the assay on LNCaP cells (30 min, specific uptake), 7.0 ± 1.1 % of the applied activity; in the assay on LNCaP cells (60 min, specific uptake), 11.7 ± 1.6 % of the applied activity; in the assay with LNCaP cells (120 min, specific uptake), 17.6 ± 2.8 % of the applied activity; with LNCaP cells (after 1 h at 37° C.) it was 12±1.9%. The “cellular uptake in vitro” value with LNCaP cells (after 1 h at 37° C.) was 26.6±0.9%. Also, the PSMA-mediated cellular uptake result in the assay on LNCaP cells (after 2h at 37° C.) is “approx. 35%”. Moreover, the “part of the cellular uptake being internalized” value in the assay on LNCaP cells (after 2h at 37° C.) is listed as 50-60%. The “uptake in PSMA-positive tumors and kidneys in xenografts pre-injected with 2-PMPA” value at PSMA was “significantly lower uptake”.
